Assay [1] is described as follows: Displacement of [3H] batrachotoxinin from rat sodium channel site 2 measured after 60 mins by scintillation counter method.
The target in assay [2] is 5-hydroxytryptamine receptor 2B (Homo sapiens, UniProt P41595). Nature of the assay: Antagonist activity at human recombinant 5-HT2B receptor in CHOK1 cells measured after 30 mins by HTRF assay. It is filed as cell-based.
The next assay has as its target T1, Substance-K receptor (Homo sapiens, UniProt P21452).
T1 sequence (P21452 whole entry): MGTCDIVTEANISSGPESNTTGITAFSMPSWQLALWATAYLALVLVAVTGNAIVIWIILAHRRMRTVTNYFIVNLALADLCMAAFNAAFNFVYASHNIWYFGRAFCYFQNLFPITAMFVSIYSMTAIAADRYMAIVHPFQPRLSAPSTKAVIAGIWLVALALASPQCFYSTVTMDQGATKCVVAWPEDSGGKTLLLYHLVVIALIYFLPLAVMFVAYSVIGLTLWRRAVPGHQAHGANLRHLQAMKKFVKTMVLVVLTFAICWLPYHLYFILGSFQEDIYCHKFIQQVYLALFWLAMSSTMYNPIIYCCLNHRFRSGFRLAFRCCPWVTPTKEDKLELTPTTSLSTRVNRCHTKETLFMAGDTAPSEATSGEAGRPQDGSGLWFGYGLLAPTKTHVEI
In words: Displacement of [125I]NKA from human recombinant NK2 receptor measured after 60 mins by scintillation counter method. (In general: Displacement assays read how much labelled ligand stays bound in the presence of the test substance.)

Assay [3] deals with 5-hydroxytryptamine receptor 2A (Homo sapiens, UniProt P28223). In words: Displacement of [3H] ketanserin from human recombinant 5-HT2A receptor measured after 60 mins by scintillation counter method.
The target in assay [4] is T2, 5-hydroxytryptamine receptor 1A (Homo sapiens, UniProt P08908).
T2 sequence (P08908 whole entry): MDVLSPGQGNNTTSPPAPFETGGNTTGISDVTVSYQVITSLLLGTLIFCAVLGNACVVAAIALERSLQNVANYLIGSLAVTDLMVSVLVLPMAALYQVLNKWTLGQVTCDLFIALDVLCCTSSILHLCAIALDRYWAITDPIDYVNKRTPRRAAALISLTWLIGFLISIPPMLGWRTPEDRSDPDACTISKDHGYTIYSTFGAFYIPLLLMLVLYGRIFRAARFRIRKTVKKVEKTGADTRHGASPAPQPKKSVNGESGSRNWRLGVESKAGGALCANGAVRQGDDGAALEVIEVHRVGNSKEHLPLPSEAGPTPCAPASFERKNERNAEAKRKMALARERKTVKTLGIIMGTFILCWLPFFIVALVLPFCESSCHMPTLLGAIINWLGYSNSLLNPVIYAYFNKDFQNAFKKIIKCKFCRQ
Nature of the assay: Displacement of [3H]OH-DPAT from human recombinant 5-HT1A receptor measured after 60 mins by scintillation counter method.

The target in assay [5] is Sodium-dependent serotonin transporter (Homo sapiens, UniProt P31645). In words: Displacement of [3H] imipramine from human recombinant 5-HT transporter measured after 60 mins by scintillation counter method.

Structures are written as SMILES. pIC50, pKi: −log10 of the molar value.

5-hydroxytryptamine receptor 2B, sequence (P41595 whole entry): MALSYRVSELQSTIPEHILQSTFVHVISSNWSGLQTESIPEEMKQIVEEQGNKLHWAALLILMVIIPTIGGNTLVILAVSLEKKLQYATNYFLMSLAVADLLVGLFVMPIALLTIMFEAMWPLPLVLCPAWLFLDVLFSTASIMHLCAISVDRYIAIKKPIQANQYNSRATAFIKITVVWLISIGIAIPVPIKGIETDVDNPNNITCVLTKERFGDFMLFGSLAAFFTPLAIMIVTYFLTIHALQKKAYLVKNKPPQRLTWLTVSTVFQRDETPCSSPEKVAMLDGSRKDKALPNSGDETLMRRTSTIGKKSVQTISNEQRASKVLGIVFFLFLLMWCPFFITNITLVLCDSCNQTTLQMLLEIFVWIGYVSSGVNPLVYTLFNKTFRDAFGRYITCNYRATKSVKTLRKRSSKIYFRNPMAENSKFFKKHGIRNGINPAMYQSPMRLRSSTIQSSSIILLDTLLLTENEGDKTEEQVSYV
5-hydroxytryptamine receptor 2A, sequence (P28223 whole entry): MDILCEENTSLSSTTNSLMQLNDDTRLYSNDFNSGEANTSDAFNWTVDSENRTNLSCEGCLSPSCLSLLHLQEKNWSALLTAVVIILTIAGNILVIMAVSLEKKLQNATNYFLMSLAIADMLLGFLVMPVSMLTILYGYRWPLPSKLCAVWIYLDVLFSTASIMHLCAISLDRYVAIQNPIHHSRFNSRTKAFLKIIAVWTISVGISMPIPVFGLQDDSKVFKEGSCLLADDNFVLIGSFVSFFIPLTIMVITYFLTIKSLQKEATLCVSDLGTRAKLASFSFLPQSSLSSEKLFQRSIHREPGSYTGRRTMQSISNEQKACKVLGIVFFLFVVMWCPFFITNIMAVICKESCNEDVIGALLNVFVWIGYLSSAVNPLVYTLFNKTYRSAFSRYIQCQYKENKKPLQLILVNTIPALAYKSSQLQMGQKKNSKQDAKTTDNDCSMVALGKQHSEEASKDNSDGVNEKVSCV
Sodium-dependent serotonin transporter, sequence (P31645 whole entry): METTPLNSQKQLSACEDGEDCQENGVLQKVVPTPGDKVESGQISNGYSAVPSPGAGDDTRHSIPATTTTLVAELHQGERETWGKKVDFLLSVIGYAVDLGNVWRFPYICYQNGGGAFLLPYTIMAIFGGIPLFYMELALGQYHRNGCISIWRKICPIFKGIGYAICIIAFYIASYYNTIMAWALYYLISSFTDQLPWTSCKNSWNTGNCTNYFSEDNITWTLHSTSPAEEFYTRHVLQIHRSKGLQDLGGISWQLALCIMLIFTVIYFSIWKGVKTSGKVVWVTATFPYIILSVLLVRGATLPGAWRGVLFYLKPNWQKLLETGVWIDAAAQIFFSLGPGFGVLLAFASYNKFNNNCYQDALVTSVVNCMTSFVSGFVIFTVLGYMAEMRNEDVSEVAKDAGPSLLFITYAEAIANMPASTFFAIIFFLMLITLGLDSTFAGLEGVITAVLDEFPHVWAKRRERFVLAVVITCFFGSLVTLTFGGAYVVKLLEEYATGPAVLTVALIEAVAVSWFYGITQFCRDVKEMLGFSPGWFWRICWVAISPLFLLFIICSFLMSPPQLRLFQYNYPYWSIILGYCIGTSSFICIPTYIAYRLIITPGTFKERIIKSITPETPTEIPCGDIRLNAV

In general, pIC50 refers to −log10 of the IC50, conventionally taken in molar units. In general, pKi refers to the negative decadic logarithm of the Ki, by convention in mol/L. For `CC(C)CCO[C@@H]1[C@H]2OC(C)(C)O[C@H]2[C@H]2COCc3cn(nn3)C[C@H]3O[C@H](CCN(CCc4ccc5ccccc5c4)CC[C@H]1O2)[C@H](OCCC(C)C)[C@H]1OC(C)(C)O[C@H]13`, the pIC50 in assay [1] was 6.34; in assay [2], 4.82; on Substance-K receptor, 5.52; in assay [3], 5.06; in assay [4], 6.17; in assay [5], less than 4.00. Moreover, the pKi was 6.39 in assay [1]; 5.09 in assay [2]; 5.80 at Substance-K receptor; 5.33 in assay [3]; 6.38 in assay [4]; less than 4.00 in assay [5].

`CN1C[C@@H](NS(=O)(=O)N(C)C)C[C@@H]2c3cccc4c3c(cn4C)C[C@H]21` [MESULERGINE]: in assay [2], the pIC50 was 8.28 and the pKi was 8.55.

In assay [1], `COc1ccc(C(=O)O[C@H]2CC[C@@]3(C)[C@@H]4CC[C@H]5[C@]6(O)C[C@H](O)[C@@]7(O)[C@@H](CN8C[C@@H](C)CC[C@H]8[C@@]7(C)O)[C@]6(O)C[C@@]53O[C@]24O)cc1OC` [VERATRIDINE] showed a negative logarithm of the IC50 (pIC50) of 5.05 and a pKi of 5.09.

The values are drawn from ChEMBL document CHEMBL4393714, “Multi-targeting protein-protein interaction inhibitors: Evolution of macrocyclic ligands with embedded carbohydrates (MECs) to improve selectivity” (Eur J Med Chem, 2019).
